≈ marks a conversion by molar mass, not a printed value.

Data set [1] in a line: Solubility of the compound at pH 7. In kind it is physicochemical. The settings on record: buffer.
Data set [2] is described as follows: Oral bioavailability in rat. The settings on record: in vivo. The class given is ADME, organism-based.
In data set [3] the target is T1, Nuclear receptor subfamily 1 group I member 2 (Homo sapiens, UniProt O75469).
T1 sequence (O75469 whole entry): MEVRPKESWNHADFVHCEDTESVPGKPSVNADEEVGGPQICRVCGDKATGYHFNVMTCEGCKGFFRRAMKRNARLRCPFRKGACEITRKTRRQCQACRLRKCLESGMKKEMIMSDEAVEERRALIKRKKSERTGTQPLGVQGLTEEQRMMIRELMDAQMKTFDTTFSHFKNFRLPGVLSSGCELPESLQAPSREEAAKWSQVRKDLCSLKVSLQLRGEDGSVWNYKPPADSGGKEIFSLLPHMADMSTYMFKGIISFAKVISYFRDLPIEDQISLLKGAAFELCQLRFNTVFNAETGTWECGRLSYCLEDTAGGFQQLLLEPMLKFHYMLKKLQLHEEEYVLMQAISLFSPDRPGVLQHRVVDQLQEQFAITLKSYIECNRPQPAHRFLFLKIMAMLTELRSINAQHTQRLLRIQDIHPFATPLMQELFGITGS
The experiment in a line: Agonist activity at PXR (unknown origin).

The target of data set [4] is T2, PXR (NR1I2) (Homo sapiens, UniProt O75469).
T2 sequence (O75469 whole entry): T1 sequence (O75469 whole entry)
As to the kind of experiment: Agonist activity at PXR (unknown origin) assessed as maximal efficacy at 30 uM.

The target in data set [5] is Voltage-gated inwardly rectifying potassium channel KCNH2 (Homo sapiens, UniProt Q12809). As to the kind of experiment: Displacement of [35S]-MK-499 from hERG expressed in HEK293 cells […]. The class given is toxicity, cell-based.
Chain of Voltage-gated inwardly rectifying potassium channel KCNH2 (Q12809 whole entry): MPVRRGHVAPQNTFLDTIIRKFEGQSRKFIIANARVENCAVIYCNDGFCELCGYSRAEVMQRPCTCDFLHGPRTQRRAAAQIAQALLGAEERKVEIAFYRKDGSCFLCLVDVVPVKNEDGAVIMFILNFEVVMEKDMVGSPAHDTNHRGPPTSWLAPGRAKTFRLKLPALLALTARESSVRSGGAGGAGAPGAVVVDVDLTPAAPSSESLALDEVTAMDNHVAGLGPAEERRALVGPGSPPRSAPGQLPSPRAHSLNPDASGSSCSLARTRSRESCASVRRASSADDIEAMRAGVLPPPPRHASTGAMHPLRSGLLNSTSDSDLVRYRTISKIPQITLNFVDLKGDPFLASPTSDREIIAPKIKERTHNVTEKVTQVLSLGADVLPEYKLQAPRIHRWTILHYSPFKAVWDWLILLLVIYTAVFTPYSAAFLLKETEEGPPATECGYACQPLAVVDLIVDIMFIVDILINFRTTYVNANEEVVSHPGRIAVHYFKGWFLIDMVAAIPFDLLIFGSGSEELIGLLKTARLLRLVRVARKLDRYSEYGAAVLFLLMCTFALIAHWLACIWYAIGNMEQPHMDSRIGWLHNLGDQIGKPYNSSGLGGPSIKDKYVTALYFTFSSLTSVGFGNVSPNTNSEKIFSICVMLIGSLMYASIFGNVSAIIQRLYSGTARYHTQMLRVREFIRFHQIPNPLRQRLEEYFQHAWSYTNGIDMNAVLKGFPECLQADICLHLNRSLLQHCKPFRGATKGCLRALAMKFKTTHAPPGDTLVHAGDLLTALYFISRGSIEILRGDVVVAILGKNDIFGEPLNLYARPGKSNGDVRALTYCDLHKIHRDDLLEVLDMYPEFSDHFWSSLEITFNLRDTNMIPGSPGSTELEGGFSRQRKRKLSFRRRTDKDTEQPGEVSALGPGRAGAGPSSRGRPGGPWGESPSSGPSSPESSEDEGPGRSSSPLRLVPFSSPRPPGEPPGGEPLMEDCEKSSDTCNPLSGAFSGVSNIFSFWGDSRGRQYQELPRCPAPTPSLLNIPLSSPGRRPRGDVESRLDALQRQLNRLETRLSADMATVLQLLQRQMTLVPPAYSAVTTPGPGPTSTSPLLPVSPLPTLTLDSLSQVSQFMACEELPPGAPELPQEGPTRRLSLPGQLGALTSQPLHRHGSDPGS
A short description of data set [6]: Apparent permeability in […] LLC-MDR1 cell. The class given is ADME, cell-based. The settings on record: LLC-PK1.
The nature of data set [7]: Oral bioavailability in rat at 20 mg/kg. The class given is ADME, organism-based. The settings on record: in vivo.
In data set [8] the target is Sodium channel protein type 5 subunit alpha (Homo sapiens, UniProt Q14524). The experiment in a line: Inhibition of NaV 1.5 channel (unknown origin) by automated patch-clamp assay. (In general: The patch-clamp technique gives a direct electrical read-out from membranes.)
For data set [9], the target named is Metabotropic glutamate receptor 3 (Homo sapiens, UniProt Q14832). As to the kind of experiment: Negative allosteric modulation at mGluR3 receptor (unknown origin) assessed as effect on intracellular calcium flux measured after 5 min by Fluo-4AM dye based FLIPR analysis. The class given is functional, cell-based. For orientation: Calcium assays in cells follow changes in intracellular calcium, usually with a dye or a luminescent sensor.
Chain of Metabotropic glutamate receptor 3 (Q14832 whole entry): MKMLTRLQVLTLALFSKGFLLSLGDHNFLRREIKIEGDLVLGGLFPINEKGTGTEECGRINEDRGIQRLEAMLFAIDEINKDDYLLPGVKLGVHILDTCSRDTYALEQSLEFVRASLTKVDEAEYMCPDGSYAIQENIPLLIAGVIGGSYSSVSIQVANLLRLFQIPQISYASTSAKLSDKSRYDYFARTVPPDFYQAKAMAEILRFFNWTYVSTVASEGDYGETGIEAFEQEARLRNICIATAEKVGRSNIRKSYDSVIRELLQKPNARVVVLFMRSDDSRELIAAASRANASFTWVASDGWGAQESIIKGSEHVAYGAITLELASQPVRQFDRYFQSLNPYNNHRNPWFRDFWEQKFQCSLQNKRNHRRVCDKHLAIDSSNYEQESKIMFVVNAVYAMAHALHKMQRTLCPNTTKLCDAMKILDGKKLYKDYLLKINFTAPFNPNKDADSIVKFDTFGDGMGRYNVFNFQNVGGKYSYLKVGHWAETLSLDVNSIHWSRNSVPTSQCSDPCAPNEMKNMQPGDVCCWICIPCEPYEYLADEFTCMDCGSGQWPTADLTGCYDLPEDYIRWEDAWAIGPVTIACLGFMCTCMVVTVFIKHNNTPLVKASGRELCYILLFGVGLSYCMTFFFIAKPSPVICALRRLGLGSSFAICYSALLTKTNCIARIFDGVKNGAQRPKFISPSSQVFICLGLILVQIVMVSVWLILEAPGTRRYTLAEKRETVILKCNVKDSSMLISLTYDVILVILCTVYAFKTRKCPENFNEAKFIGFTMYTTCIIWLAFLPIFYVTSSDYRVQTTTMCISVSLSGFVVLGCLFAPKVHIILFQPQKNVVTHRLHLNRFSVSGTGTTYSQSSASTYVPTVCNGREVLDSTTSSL

Data set [10] has as its target Voltage-dependent L-type calcium channel subunit alpha-1C (Homo sapiens, UniProt Q13936). As to the kind of experiment: Inhibition of Cav1.2 (unknown origin).
For data set [11], the target named is Metabotropic glutamate receptor 2 (Homo sapiens, UniProt Q14416). The experiment in a line: Negative allosteric modulation at human mGluR2 receptor stably expressed in DHFR null CHO cells co-expressing Galpha16 assessed as effect on intracellular calcium flux measured after 5 min by Fluo-4AM dye based FLIPR analysis. The class given is functional, cell-based.
Chain of Metabotropic glutamate receptor 2 (Q14416 whole entry): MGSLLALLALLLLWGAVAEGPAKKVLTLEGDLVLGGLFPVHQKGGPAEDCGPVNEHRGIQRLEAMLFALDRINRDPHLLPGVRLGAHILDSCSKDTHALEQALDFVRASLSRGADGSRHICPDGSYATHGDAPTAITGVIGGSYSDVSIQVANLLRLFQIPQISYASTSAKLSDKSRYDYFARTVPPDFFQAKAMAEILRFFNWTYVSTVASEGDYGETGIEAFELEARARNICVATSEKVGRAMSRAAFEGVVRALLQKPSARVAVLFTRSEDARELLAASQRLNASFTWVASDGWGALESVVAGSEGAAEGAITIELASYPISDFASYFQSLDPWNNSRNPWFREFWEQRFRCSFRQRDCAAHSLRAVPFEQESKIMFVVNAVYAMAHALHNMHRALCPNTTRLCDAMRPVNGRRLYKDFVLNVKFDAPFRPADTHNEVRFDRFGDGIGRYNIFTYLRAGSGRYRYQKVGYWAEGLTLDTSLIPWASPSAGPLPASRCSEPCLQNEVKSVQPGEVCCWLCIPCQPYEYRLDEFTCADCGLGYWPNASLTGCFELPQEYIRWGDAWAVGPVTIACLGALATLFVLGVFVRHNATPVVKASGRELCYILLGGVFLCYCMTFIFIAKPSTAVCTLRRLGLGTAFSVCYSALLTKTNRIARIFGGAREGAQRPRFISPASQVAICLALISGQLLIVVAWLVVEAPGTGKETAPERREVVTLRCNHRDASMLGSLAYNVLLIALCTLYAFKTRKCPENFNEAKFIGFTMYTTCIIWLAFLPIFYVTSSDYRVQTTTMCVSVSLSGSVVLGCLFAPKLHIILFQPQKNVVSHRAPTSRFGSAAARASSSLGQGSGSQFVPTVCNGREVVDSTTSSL

The target of data set [12] is P-gp (ABCB1) (Rattus norvegicus, UniProt P43245). As to the kind of experiment: Substrate activity at rat P-gp […] in […] LLC-MDR1 cells assessed as efflux ratio of apparent permeability across basolateral to apical over apical to basolateral side. In kind it is ADME, cell-based, LLC-MDR1 cell. The settings on record: LLC-PK1.

Chain of Voltage-dependent L-type calcium channel subunit alpha-1C (Q13936 whole entry): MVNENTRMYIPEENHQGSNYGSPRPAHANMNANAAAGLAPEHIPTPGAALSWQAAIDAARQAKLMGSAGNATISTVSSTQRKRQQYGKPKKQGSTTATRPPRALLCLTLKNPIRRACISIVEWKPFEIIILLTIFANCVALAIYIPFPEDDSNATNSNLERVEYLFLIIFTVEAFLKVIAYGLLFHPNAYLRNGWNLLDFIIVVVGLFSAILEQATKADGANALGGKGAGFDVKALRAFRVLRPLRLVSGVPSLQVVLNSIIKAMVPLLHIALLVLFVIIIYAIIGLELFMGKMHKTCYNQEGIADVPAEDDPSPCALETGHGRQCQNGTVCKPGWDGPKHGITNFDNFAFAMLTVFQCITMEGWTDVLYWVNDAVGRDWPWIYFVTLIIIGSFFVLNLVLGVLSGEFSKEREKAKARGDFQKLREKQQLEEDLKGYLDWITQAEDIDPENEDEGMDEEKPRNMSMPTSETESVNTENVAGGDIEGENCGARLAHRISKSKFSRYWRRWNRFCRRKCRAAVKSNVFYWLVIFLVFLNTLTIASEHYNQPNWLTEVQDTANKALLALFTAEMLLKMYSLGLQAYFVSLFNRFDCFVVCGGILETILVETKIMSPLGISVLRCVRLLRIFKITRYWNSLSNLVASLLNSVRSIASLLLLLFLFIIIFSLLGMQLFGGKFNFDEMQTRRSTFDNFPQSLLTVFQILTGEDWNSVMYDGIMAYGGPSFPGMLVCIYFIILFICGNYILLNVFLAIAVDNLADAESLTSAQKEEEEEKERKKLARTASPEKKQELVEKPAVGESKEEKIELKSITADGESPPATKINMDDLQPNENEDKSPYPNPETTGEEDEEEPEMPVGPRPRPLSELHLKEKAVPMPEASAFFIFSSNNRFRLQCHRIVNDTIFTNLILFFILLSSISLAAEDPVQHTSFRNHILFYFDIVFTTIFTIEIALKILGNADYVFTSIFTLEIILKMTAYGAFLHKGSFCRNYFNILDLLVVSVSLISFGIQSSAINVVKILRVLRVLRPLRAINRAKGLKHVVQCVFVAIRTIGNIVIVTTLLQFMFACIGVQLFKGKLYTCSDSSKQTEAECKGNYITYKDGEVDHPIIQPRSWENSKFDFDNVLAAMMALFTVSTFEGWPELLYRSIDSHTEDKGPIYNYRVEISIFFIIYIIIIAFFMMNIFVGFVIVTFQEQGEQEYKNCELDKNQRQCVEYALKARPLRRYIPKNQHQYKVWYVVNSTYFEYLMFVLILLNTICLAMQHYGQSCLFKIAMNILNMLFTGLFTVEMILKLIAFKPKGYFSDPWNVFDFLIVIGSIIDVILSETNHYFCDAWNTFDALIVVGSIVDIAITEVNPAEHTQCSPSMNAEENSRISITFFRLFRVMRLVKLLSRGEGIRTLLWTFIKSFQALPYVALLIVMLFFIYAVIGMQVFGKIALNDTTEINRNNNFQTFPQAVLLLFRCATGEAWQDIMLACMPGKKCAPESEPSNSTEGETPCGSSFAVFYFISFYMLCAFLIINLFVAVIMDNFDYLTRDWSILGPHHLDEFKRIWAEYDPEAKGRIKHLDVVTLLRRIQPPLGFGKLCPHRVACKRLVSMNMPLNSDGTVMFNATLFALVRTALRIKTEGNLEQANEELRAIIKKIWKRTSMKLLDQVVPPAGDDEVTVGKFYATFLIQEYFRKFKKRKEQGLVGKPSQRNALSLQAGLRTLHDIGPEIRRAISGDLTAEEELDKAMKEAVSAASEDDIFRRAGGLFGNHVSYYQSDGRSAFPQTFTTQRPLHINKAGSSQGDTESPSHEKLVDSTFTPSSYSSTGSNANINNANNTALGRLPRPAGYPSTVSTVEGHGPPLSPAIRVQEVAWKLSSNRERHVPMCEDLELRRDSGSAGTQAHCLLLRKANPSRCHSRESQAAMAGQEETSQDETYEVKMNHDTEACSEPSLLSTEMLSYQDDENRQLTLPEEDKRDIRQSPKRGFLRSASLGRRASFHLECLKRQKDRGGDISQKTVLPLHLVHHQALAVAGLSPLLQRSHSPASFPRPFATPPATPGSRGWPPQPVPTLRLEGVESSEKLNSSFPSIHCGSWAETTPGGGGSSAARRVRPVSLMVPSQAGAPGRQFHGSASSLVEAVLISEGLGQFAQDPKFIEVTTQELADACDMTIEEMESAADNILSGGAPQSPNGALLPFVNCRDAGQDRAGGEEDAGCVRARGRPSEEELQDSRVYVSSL

Broadly, the solubility is how much of the substance goes into solution per volume. Usually bioavailability stands for dose-corrected exposure relative to a reference, in per cent. Read a low bioavailability as little systemic uptake. In data set [1], `NC(=O)c1cc(-c2ccc(F)cc2)c2ccc(CN3C(=O)CCC3=O)cc2n1` displayed a solubility of 4 µM (≈ 1.51 µg/mL). Further, in data set [2], the bioavailability stood at 100%.

Usually EC50 stands for the concentration giving half of the maximal effect. Read a high EC50 as a less potent agent. By Emax is commonly meant the maximal effect, on the per cent scale that the assay sets. In general, IC50 refers to the midpoint of a concentration-inhibition curve. The term Papp denotes a coefficient for how fast a substance crosses the barrier. As to `NC(=O)c1cc(-c2ccc(F)cc2)c2ccc(CCc3cncnc3)cc2n1`, the solubility in [1] (read-out: solubility) is less than 1 µM. The molecule further gave an EC50 in [3] of more than 30 µM. Moreover, in data set [4], the maximum response (Emax) at 30 µM was 47%. Also, the IC50 in data set [5] is more than 60 µM. For the same molecule, the Papp in [6] stood at 310 nm/s.

Regarding `NC(=O)c1cc(-c2ccc(F)cc2)c2ccc(CN3CCOC3=O)cc2n1`, in [1] (read-out: solubility), the solubility is 127 µM (≈ 46.4 µg/mL). In data set [3], this molecule registered an EC50 of 9.7 µM. Further, in [4], the Emax at 30 µM is 95%. This molecule returned an IC50 in data set [5] of 14 µM. Also, the apparent permeability coefficient (Papp) in [6] was 360 nm/s.

Regarding `Cn1cc(-c2cc(C(N)=O)nc3cc(CN4CCO[C@@H](C(F)(F)F)C4)ccc23)cn1`, in data set [1] (read-out: solubility), the solubility amounted to 142 µM (≈ 59.6 µg/mL). In addition, the bioavailability in [7] was determined as 100%. Further, the IC50 in data set [8] was more than 30 µM; in data set [5], more than 60 µM; in data set [9], 7.8 µM; in data set [10], 22 µM. Besides, the Papp in [6] worked out at 290 nm/s.

Turning to `NC(=O)c1cc(N2CCOCC2)c2ccc(CN3C(=O)CCC3=O)cc2n1`, in [1] (read-out: solubility), the solubility was 157 µM (≈ 57.8 µg/mL). The molecule also registered an IC50 in data set [5] of 17 µM. For the same molecule, the apparent permeability (Papp) in data set [6] was 350 nm/s.

Take `CN(C)C(=O)C(C)(C)c1ccc2c(-c3ccc(F)cc3)cc(C(N)=O)nc2c1`: in [1] (read-out: solubility), the solubility is less than 2 µM. Besides, in [3], the response was half-maximal at 3.5 µM (EC50). Also, in [4], the Emax at 30 µM was determined as 110%. This molecule displayed an IC50 in data set [5] of 40 µM. Also, in data set [6], the Papp amounted to 380 nm/s.

`Cn1ccc(CCc2ccc3c(-c4ccc(F)cc4)cc(C(N)=O)nc3c2)n1`: the solubility in data set [1] (read-out: solubility) was less than 1 µM. In data set [3], this molecule yielded an EC50 of 9.2 µM. The Emax at 30 µM in data set [4] was 97%. Further, the IC50 in data set [5] is 2.9 µM. Besides, the Papp in data set [6] is 250 nm/s.

One may read the efflux ratio as a quotient of directional permeabilities that is used to spot active efflux. `CN1CC=C(c2cc(C(N)=O)nc3cc(CN4C(=O)CCC4=O)ccc23)CC1`: the solubility in data set [1] (read-out: solubility) was 203 µM (≈ 76.8 µg/mL). Also, the IC50 in [11] amounted to 4.03 µM. Moreover, in data set [12], the efflux ratio turned out to be 19. Besides, the Papp in data set [6] was 380 nm/s.

As for `Cc1ncc(-c2cc(C(N)=O)nc3cc(CN4C(=O)CCC4=O)ccc23)s1`, the solubility in data set [1] (read-out: solubility) was 64 µM (≈ 24.3 µg/mL). The molecule further had an EC50 in data set [3] of 6 µM. Also, the Emax at 30 µM in [4] was 137%. In data set [5], the IC50 is more than 60 µM.

`CCn1cc(-c2cc(C(N)=O)nc3cc(CN4C(=O)CCC4=O)ccc23)cn1`: the solubility in [1] (read-out: solubility) was 150 µM (≈ 56.6 µg/mL). The IC50 in [5] came out at 27 µM. Besides, the Papp in data set [6] worked out at 240 nm/s.

Turning to `Cn1cc(Cc2ccc3c(-c4ccc(F)cc4)cc(C(N)=O)nc3c2)cn1`, the solubility in data set [1] (read-out: solubility) was found to be 4 µM (≈ 1.44 µg/mL). In data set [3], this molecule came in with an EC50 of more than 30 µM. Besides, the Emax at 30 µM in data set [4] was determined as 21%. Besides, the IC50 in data set [5] was found to be 3.5 µM. Further, the apparent permeability (Papp) in [6] is 310 nm/s.

As to `Cc1cc(NCc2ccc3c(-c4ccc(F)cc4)cc(C(N)=O)nc3c2)no1`, in data set [1] (read-out: solubility), the solubility was found to be 3 µM (≈ 1.13 µg/mL). This molecule also displayed an EC50 in data set [3] of more than 30 µM. Moreover, the Emax at 30 µM in data set [4] worked out at 49%. This molecule gave an IC50 in [5] of 3.3 µM. Further, in [6], the Papp is 300 nm/s.

In the case of `Cn1cc(-c2cc(C(N)=O)nc3cc(CN4C(=O)CCC4=O)ccc23)cn1`, the solubility in [1] (read-out: solubility) amounted to 162 µM (≈ 58.9 µg/mL). For the same molecule, the Papp in data set [6] came to 300 nm/s.

With `Cc1ncc(CCc2ccc3c(-c4cnn(C)c4)cc(C(N)=O)nc3c2)cn1`, in data set [1] (read-out: solubility), the solubility stood at 141 µM (≈ 52.5 µg/mL). This molecule showed an IC50 in data set [5] of more than 60 µM. Further, the Papp in [6] was 300 nm/s.

Regarding `Cc1ncc(NCc2ccc3c(-c4ccc(F)cc4)cc(C(N)=O)nc3c2)cn1`, the solubility in data set [1] (read-out: solubility) is 7 µM (≈ 2.71 µg/mL). This molecule came in with an EC50 in [3] of more than 30 µM. In addition, the maximal effect (Emax) at 30 µM in [4] was determined as 1%. Further, the concentration for half-maximal inhibition (IC50) in [5] was determined as 6.2 µM. In addition, the Papp in data set [6] was determined as 310 nm/s.

On to `CC(C)(C(=O)N1CCOCC1)c1ccc2c(-c3ccc(F)cc3)cc(C(N)=O)nc2c1`, for which the solubility in data set [1] (read-out: solubility) turned out to be 143 µM (≈ 60.3 µg/mL). Further, the concentration for half-maximal inhibition (IC50) in data set [5] turned out to be 20.6 µM. Moreover, the Papp in data set [6] stood at 320 nm/s.

Turning to `Cc1cnn(-c2cc(C(N)=O)nc3cc(CN4C(=O)CCC4=O)ccc23)c1`, in [1] (read-out: solubility), the solubility amounted to 99 µM (≈ 36 µg/mL). Besides, the concentration giving a half-maximal response (EC50) in data set [3] was more than 30 µM. For the same molecule, in [4], the Emax at 30 µM is 54%.

These data come from ChEMBL document CHEMBL5360658, “Discovery of MK-8768, a Potent and Selective mGluR2 Negative Allosteric Modulator” (ACS Med Chem Lett, 2023).
